Experimental data as given in patent US20200205406A1, “MICROBIOCIDAL PHENYLAMIDINE DERIVATIVES WITH IMPROVED PLANT SAFETY PROPERTIES” (SYNGENTA PARTICIPATIONS AG, priority 2017, published 2020).

melting point: 59 to 60 °C
SMILES: CCN(C)C=Nc1cc(OC)c(Oc2ccccc2)cc1C
